Reference: ChEMBL document CHEMBL4011612, “4-Anilino-pyrimidine, novel aldosterone synthase (CYP11B2) inhibitors bearing pyrimidine structures” (Bioorg Med Chem Lett, 2017)
In brackets after ≈: the same amount, converted by molar mass. Activity calls are given as the source filed them. The rule behind the calls is not given here.

Key:
[1] = target: T1, Cytochrome P450 11B2, mitochondrial (Homo sapiens, UniProt P19099)
T1 sequence (P19099 whole entry): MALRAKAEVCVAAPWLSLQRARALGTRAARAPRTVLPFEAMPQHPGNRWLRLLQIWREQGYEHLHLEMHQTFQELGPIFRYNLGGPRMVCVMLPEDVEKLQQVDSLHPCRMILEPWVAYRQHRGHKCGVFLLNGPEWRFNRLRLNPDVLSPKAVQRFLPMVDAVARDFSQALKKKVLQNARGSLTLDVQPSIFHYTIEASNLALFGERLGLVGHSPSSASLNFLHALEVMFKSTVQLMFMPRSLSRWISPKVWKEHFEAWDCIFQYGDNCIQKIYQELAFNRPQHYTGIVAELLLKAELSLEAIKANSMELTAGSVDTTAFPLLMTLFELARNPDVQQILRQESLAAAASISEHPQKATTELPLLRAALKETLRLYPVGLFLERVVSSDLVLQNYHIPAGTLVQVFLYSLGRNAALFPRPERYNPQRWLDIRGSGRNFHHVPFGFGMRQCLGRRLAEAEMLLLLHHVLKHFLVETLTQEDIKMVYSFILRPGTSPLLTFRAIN
Description: Inhibition of human CYP11B2 expressed in HEK293A cells using deoxycorticosterone as substrate pretreated for 1 hr followed by substrate addition measured after 1 hr by HTRF assay

[2] = target: T2, Cytochrome P450 11B2, mitochondrial (Mus musculus, UniProt P15539)
T2 sequence (P15539 whole entry): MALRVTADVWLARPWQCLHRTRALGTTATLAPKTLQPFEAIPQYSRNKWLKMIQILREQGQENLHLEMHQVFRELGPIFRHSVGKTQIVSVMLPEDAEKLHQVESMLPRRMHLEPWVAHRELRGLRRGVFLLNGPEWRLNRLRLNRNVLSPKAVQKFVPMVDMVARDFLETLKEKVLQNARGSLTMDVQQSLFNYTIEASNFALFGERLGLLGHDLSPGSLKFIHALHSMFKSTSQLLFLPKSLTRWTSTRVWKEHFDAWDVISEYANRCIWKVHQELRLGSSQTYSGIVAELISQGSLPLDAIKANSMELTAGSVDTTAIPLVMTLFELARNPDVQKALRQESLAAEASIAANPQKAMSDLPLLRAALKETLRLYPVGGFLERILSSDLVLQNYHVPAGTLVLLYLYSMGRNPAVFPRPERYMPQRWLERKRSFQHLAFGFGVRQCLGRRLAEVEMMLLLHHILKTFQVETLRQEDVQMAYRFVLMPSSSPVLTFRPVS
Description: Inhibition of mouse CYP11B2 expressed in HEK293 cells using deoxycorticosterone as substrate pretreated for 1 hr followed by substrate addition after 2 hrs by HTRF assay

[3] = target: T3, Cytochrome P450 11B1, mitochondrial (Homo sapiens, UniProt P15538); experiment: Inhibition of human CYP11B1 expressed in HEK293A cells; assay type: ADME, cell-based, HEK293
T3 sequence (P15538 whole entry): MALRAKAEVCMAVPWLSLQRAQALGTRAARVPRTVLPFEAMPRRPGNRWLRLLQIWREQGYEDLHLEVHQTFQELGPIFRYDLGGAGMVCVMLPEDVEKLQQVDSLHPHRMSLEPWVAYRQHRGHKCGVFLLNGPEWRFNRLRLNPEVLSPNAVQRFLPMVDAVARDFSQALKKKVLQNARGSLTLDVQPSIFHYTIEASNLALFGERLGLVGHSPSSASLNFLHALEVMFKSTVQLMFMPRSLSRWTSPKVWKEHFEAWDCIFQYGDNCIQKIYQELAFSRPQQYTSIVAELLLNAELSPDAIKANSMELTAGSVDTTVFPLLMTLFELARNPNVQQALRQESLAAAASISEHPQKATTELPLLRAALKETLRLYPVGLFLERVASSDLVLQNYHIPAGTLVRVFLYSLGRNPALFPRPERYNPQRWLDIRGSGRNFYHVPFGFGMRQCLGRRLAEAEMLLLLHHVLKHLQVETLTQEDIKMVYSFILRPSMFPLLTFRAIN

[4] = Solubility of the compound at pH 1.2; assay type: physicochemical; conditions: buffer
CYP3A4 = CYP3A4 (Homo sapiens, UniProt P08684); experiment: Inhibition of CYP3A4 (unknown origin) at 10 uM
CYP1A2 = target: T4, CYP1A2 (Homo sapiens, UniProt P05177); experiment: Inhibition of CYP1A2 (unknown origin) at 10 uM; assay type: ADME
T4 sequence (P05177 whole entry): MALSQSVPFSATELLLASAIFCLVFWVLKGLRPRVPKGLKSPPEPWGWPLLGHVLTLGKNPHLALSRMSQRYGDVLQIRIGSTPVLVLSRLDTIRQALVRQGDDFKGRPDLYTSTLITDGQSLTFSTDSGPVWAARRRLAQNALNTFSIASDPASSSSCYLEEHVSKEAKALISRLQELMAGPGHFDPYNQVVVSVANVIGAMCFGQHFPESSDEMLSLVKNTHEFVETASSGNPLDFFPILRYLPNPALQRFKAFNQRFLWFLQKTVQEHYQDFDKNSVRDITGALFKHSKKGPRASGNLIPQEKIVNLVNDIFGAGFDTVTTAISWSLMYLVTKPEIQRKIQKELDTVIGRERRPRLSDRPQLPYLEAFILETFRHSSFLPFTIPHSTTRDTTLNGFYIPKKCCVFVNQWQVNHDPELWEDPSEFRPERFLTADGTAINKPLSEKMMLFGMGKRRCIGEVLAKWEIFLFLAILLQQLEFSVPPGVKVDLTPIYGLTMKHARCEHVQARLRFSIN

CYP2C9 = CYP2C9 (Homo sapiens, UniProt P11712); experiment: Inhibition of CYP2C9 (unknown origin) at 10 uM; assay type: ADME
CYP2D6 = CYP2D6 (Homo sapiens, UniProt P10635); experiment: Inhibition of CYP2D6 (unknown origin) at 10 uM; assay type: ADME
CYP19 (aromatase) = target: T5, CYP19 (aromatase) (Homo sapiens, UniProt P11511); experiment: Inhibition of CYP19 (unknown origin) at 1 uM
T5 sequence (P11511 whole entry): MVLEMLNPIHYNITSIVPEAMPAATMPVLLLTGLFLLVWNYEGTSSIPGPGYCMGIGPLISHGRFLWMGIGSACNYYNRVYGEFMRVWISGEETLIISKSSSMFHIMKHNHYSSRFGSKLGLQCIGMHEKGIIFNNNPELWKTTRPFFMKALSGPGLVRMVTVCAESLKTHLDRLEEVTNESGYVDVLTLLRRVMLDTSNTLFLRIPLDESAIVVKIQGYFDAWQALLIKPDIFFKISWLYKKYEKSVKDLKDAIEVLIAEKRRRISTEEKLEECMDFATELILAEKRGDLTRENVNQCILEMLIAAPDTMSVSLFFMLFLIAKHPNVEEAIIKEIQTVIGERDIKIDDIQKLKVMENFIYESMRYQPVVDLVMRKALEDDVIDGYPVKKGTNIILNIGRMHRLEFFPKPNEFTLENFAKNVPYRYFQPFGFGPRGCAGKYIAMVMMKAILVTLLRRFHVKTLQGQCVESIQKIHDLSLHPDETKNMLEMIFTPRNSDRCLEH

Liver = experiment: Metabolic stability in human liver microsomes; assay type: ADME, microsome
[5] = Plasma protein binding in mouse; assay type: ADME, cell-free; conditions: read-out: PPB (converted)
[6] = Solubility of the compound at pH 6.8; assay type: physicochemical; conditions: buffer
[7] = Half life in cynomolgus monkey at 3 mg/kg, po administered as single dose; assay type: ADME, organism-based, Macaca fascicularis; conditions: in vivo
[8] = Cmax in cynomolgus monkey at 3 mg/kg, po administered as single dose; assay type: ADME, organism-based, Macaca fascicularis; parameters: dose 3 mg/kg, route oral; conditions: in vivo
[9] = Tmax in cynomolgus monkey at 3 mg/kg, po administered as single dose; assay type: ADME, organism-based, Macaca fascicularis; conditions: in vivo
[10] = Total AUC in cynomolgus monkey at 3 mg/kg, po administered as single dose; assay type: ADME, organism-based, Macaca fascicularis; parameters: dose 3 mg/kg, time AUCmax, route oral; conditions: in vivo
[11] = Inhibition of monkey CYP11B2; parameters: species or system Macaca mulatta
[12] = target: T6, Cytochrome P450 11B2, mitochondrial (Rattus norvegicus, UniProt P30099); experiment: Inhibition of rat CYP11B2
T6 sequence (P30099 whole entry): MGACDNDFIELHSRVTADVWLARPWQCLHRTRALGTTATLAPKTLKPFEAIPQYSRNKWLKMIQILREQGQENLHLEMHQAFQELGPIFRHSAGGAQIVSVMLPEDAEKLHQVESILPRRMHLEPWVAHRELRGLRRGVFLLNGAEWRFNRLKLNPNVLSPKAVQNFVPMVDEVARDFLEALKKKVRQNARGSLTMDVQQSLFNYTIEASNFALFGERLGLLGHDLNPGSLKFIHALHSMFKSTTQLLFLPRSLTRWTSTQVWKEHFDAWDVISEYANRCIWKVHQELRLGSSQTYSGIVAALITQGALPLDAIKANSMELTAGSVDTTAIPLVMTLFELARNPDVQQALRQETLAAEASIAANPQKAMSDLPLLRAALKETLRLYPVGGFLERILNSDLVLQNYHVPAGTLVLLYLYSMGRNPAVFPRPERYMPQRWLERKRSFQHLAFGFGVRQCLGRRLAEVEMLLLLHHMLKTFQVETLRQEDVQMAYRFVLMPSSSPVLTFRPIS

Cynomolgus monkey = experiment: Decrease in plasma aldosterone level in furosemide-induced cynomolgus monkey at 3 mg/kg, po administered as single dose by radioimmunoassay; assay type: functional, organism-based; conditions: Macaca fascicularis

Sequence of CYP2C9 (P11712 whole entry): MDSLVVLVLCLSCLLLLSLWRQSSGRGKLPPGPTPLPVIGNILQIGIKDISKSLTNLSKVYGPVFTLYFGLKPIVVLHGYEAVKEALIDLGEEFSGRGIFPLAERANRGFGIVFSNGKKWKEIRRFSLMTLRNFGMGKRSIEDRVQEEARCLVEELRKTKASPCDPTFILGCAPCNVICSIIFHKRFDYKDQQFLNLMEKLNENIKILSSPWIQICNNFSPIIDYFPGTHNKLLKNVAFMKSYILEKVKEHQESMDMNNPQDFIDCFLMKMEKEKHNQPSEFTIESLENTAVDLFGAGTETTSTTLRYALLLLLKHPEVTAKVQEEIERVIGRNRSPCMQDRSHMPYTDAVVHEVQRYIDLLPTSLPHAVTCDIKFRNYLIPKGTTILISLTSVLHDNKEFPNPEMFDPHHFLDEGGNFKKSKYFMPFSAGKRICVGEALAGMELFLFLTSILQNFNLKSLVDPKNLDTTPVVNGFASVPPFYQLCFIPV
Sequence of CYP2D6 (P10635 whole entry): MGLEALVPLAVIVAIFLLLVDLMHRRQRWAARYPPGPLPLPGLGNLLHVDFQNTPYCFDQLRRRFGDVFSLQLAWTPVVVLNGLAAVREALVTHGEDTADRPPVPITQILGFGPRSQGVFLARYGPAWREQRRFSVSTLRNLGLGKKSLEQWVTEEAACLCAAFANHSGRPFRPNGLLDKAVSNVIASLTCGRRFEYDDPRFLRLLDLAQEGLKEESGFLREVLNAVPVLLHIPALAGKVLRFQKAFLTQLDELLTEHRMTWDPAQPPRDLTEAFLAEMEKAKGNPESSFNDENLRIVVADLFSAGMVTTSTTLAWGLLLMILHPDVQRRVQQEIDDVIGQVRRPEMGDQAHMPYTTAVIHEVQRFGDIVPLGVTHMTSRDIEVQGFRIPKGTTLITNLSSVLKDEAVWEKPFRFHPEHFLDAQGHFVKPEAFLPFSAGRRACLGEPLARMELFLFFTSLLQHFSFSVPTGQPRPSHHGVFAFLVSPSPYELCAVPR
Sequence of CYP3A4 (P08684 whole entry): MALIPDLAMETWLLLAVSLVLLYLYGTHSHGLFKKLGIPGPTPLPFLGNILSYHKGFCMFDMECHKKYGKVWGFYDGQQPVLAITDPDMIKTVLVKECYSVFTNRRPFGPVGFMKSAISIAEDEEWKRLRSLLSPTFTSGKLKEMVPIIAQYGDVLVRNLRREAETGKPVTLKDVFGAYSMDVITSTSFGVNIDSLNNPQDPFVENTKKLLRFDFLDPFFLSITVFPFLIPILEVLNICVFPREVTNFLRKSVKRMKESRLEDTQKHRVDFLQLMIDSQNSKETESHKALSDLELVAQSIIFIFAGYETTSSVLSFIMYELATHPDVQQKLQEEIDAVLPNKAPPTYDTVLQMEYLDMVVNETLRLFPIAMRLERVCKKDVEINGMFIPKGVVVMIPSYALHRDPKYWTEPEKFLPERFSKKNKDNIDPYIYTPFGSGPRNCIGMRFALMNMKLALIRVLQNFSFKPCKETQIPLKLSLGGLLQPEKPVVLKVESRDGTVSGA

Structure (SMILES) | IC50 [1] [µM] | IC50 [2] [µM] | IC50 [3] [µM] | also measured
CS(=O)(=O)N1CCC(O)(c2cncnc2Nc2ccc(F)cc2)CC1 | 0.3 | 1.38 |  | 
CS(=O)(=O)N1CCC(C(=O)c2cncnc2Nc2ccc(F)cc2)CC1 | 0.109 | 5.1 |  | 
CS(=O)(=O)N1CCC(C(O)c2cncnc2Nc2ccc(F)cc2)C1 (mixture of isomers) | 0.144 | 1.47 |  | 
CS(=O)(=O)N1CCC(C(O)c2cncnc2Nc2cccc3ccccc23)CC1 (racemic) | 0.008 | 2.74 | 0.11 | 
COc1ccc(Nc2ncncc2C(O)C2CCN(S(C)(=O)=O)CC2)cc1 (racemic) | 0.014 | > 10 |  | 
OC(c1ccccc1)c1cncnc1Nc1ccc(F)cc1 (racemic) | 0.03 | 0.44 | 0.093 | 
CS(=O)(=O)N1CCC(C(O)c2cncnc2Nc2ccc(C#N)cc2)CC1 (racemic) | 0.002 | 1.34 | 0.011 | 
CC(O)(c1cncnc1Nc1ccc(F)cc1)C1CCN(S(C)(=O)=O)CC1 (racemic) | 0.002 | 0.102 | 0.006 | 
CCCCC(O)(c1cncnc1Nc1ccc(F)cc1)C1CCN(S(C)(=O)=O)CC1 (racemic) | 0.048 | 0.17 | 0.124 | 
CS(=O)(=O)N1CCC(C(O)c2cncnc2Nc2cccc(F)c2)CC1 (racemic) | 0.005 | 1.1 | 0.013 | 
OC(c1cncnc1Nc1ccc(F)cc1)C1CCNCC1 (racemic) | 0.3 | 1.31 |  | 
CS(=O)(=O)N1CCC(C(O)c2cncnc2Nc2ccccc2)CC1 (racemic) | 0.015 | 1.76 | 0.042 | 
CS(=O)(=O)N1CCC(C(O)(c2cncnc2Nc2ccc(F)cc2)C(F)(F)F)CC1 (racemic) [listing 1 of 2 here] | 0.004 | 0.01 | 0.002 | solubility [4]: 860 µg/mL (≈ 1920 µM); inhibition at 10 µM (CYP3A4): 4.1%; inhibition at 10 µM (CYP1A2): < 0%; inhibition at 10 µM (CYP2C9): 3.4%; inhibition at 10 µM (CYP2D6): 5.8%; inhibition at 1 µM (CYP19 (aromatase)): 16%; Stability (Liver): 100%; fraction unbound [5]: 0.185; solubility [6]: 260 µg/mL (≈ 580 µM); half-life [7]: 2.31 h; Cmax [8]: 515 ng/mL; Tmax [9]: 2.67 h; AUC [10]: 3300 ng·h/mL
CS(=O)(=O)N1CCC(C(O)c2cncnc2Cc2ccccc2)CC1 (racemic) | 0.083 |  |  | 
CS(=O)(=O)N1CCC(C(O)c2cncnc2Sc2ccc(F)cc2)CC1 (racemic) | 0.0004 | 0.257 | 0.0006 | 
CS(=O)(=O)N1CCC(C(O)c2cncnc2Nc2ccc(C(F)(F)F)cc2)CC1 (racemic) | 0.003 | 0.798 | 0.016 | 
Cc1ccc(Nc2ncncc2C(O)C2CCN(S(C)(=O)=O)CC2)cc1 (racemic) | 0.008 | 1.89 | 0.019 | 
CC(C)C(O)(c1cncnc1Nc1ccc(F)cc1)C1CCN(S(C)(=O)=O)CC1 (racemic) | 0.005 | 0.021 | 0.013 | 
CS(=O)(=O)N1CCC(C(O)c2cncnc2Nc2ccc(F)cc2)CC1 (racemic) | 0.003 to 0.0031 | 0.3 to 0.301 | 0.01 | IC50 [11]: 0.0027 µM; IC50 [12]: 0.3 µM
CS(=O)(=O)N1CCC(CC(O)c2cncnc2Nc2ccc(F)cc2)CC1 (racemic) | 0.192 | 3.13 |  | 
CCCC(O)c1cncnc1Nc1ccc(F)cc1 (racemic) | 0.075 | 0.911 | 0.181 | 
CS(=O)(=O)N1CCC(C(O)(c2cncnc2Nc2ccc(F)cc2)C(F)(F)F)CC1 (racemic) [listing 2 of 2 here] |  |  |  | Activity (Cynomolgus monkey): Active
CS(=O)(=O)N1CCC(C(O)(c2cncnc2Nc2ccc(F)cc2)C(F)(F)F)CC1 (single isomer, unassigned; isomer 1) | 0.00073 | 0.00073 | 0.0011 | 
CS(=O)(=O)N1CCC(C(O)(c2cncnc2Nc2ccc(F)cc2)C(F)(F)F)CC1 (single isomer, unassigned; isomer 2) | > 0.1 | > 0.1 | > 0.3 | 
